Assay results taken from patent US20240226170A9, “USE OF MBV FOR TREATING AUTOIMMUNE DISEASE” (University of Pittsburgh - Of the Commonwealth System of …, priority 2019, published 2024).

Key:
[1] = test system: antibody response to the KLH antigen; settings: days 7, 14, and 21 post-immunization; MBV 1 mg/ml i.v. on Day 0, 3, 6; cyclophosphamide 200 mg/kg i.p. on Day 0
Description: The Keyhold Limpet Hemocyanin (KLH) rat model of immunosuppression and immunotoxicity was used to assess immunotoxicity of MBV delivered systemically. […] On Day 0, the cyclophosphamide treated animals received 200 mg/kg i.p. and the MBV treated animals received 1 mg/ml UBM MBV delivered intravenously on Day 0, 3, and 6. On Day 7, all groups besides the vehicle control were immunized with 0.4 mL of 1000 μg/ml reconstituted KLH in Freund's incomplete adjuvant i.p. On days 14, 21, and 28 (7, 14, and 21 days post-immunization), whole blood was collected from the lateral tail vein and serum was isolated for analysis of anti-KLH IgM and IgG. Anti-KLH IgM and IgG were assessed in the serum of all animals using ELISA.

[2] = test system: tibiotalar joint and adjacent synovium; experiment: Histopathologic scoring of the tibiotalar joint at day 100 (pristane-induced arthritis); format: in vivo, Sprague-Dawley rats; settings: i.p. MTX, not significant (p>0.05)
Source text: Synovial inflammation, cartilage destruction, and proteoglycan loss are fundamental histopathologic changes that occur in RA disease progression. To determine the effect of MBV treatment on these histopathologic parameters, rat hind paws were collected at study termination for histopathologic imaging and analysis (day 100) from the animals from Example 2.
One hindpaw from each animal was used for histopathological analysis. Tissue specimens were fixed with 10% formalin in PBS, pH 7.4, decalcified using 5% formic acid, and embedded in paraffin wax. Sections were stained with hematoxylin and eosin (H&E) for examination by light microscopy for joint histology and pathology. […]
Inflammation and joint damage of the tibiotalar joint were investigated by using an adapted three-parameter scoring system. Inflammation was scored on a scale of 0-3 (with 0 representing no inflammation and 3 a severe inflamed joint) depending on the relative proportion of inflammatory cells in the synovial tissue. Cartilage destruction was scored on a scale of 0-3, with results ranging from the appearance of dead chondrocytes and empty lacunae to complete loss of articular cartilage. Loss of proteoglycans in cartilage was scored on a scale of 0-3, and here results ranged from fully stained cartilage by toluidine blue staining to complete loss of articular cartilage. […]

[3] = test system: Pristane-induced arthritis; experiment: Pristane-induced arthritis in rats, 60-point arthritis score; format: in vivo; settings: for disease severity (arthritis score) compared to Pristane+PBS: p<0.05
Description: The Pristane-induced arthritis model in rats has been established as a clinically-relevant animal model for studying rheumatoid arthritis (Tuncel et al. PLoS One. 2016; 11(5):e0155936). Pristane induced arthritis was induced in 8-week-old, female, Sprague-Dawley rats by an intradermal injection of 300 μL Pristane (2,6,10,14-tetramethypentadecane) at the dorsal side of the tail, 1 cm distal to the base on Day 0 of the study. […] A second dose of 300 μL pristane was administered intradermally, approximately 1 cm distally to the dorsal tail base on Day 4. Animals receiving Pristane were housed together in cages. Animals receiving Pristane were randomized into the following experimental groups: Pristane-only+PBS, Pristane+i.p. Methotrexate (MTX), Pristane+periarticular (p.a.) MBV, and intravenous (i.v.) MBV.
An arthritis score was determined on days 7, 10, 14, 17, 21, 28, and every week thereafter through an endpoint of 100 days for each animal. Photographs of each forepaw and hindpaw were taken as viewed from the volar and plantar perspectives, respectively. Qualitative arthritis severity was evaluated by two independent reviewers using a 60-point arthritis scoring criteria: 1 point was given for each inflamed knuckle or toe, and up to 5 points was assigned for an affected ankle (15 points per paw, 60 points per each rat). […] The Pristane+i.p. methotrexate animals received 0.1 mg/kg methotrexate in 1× sterile PBS (pH 7.4) delivered intra-peritoneally (i.p.) on days 7, 10, 14, 17, and 21. The Pristane+periarticular MBV animals received 25 μL of 500 μg/mL porcine-derived UBM MBV (1×10^11 particles/mL) delivered in the plantar and volar surfaces of hindpaws and forepaws, respectively. The intravenous MBV group received 100 μL of 500 μg/mL UBM MBV (1×10^11 particles/mL) delivered intravenously into the lateral tail vein of the animal. (FIG. 12A) Four animals in each group were assigned to a short-term study of 28 days and four animals were assigned to a 100 day study. Sample size was determined using previously published effect size of methotrexate with a predetermined alpha 0.05 and beta 0.80. Arthritis score was represented as mean+/−standard error of mean. Days 7-21 represent an n of 8 for each group and then days 28 and onward represent an n of 4 for each group. Differences in groups were analyzed using two-way analysis of variance with Tukey's post-hoc correction. Significance was determined prior to the study as p<0.05.

[4] = test system: bone remodeling and joint destruction in fore- and hindpaws; experiment: MicroCT imaging of paws at day 100 (pristane-induced arthritis); format: in vivo, Sprague-Dawley rats; settings: i.p. MTX, qualitative
Source text: Micro-Computed Tomography (microCT) images were acquired of hindpaws after sacrifice at day 100 of the animals studied in Example 2.

Question: What does the source list for `O=P1(N(CCCl)CCCl)NCCCO1` (stereo not shown) [Cyclophosphamide]?
Answer: anti-KLH IgG levels compared to the Vehicle+KLH control [1]: significantly reduces anti-KLH IgG levels; anti-KLH IgM levels compared to the Vehicle+KLH control [1]: significantly reduces anti-KLH IgM levels

Question: What does the source list for `CN(Cc1cnc2nc(N)nc(N)c2n1)c1ccc(C(=O)N[C@@H](CCC(=O)O)C(=O)O)cc1` [MTX, methotrexate]?
Answer: severity of cartilage damage compared to Pristane+PBS [2]: reduced the severity of cartilage damage; severity of proteoglycan loss compared to Pristane+PBS [2]: reduced the severity of proteoglycan loss; peak disease score ([3]; acute phase (days 0-42), Pristane+i.p. MTX 0.1 mg/kg on days 7, 10, 14, 17, 21, peak at day 21, mean±SEM): 9.8±0.8; disease severity (arthritis score) compared to Pristane+PBS ([3]; acute phase, Pristane+i.p. MTX 0.1 mg/kg): reduced acute disease severity at days 10, 14, 17, and 21; disease severity (arthritis score) compared to Pristane+PBS ([3]; acute phase, Pristane+i.p. MTX 0.1 mg/kg, listed as methotrexate): significantly reduces disease scoring; disease severity (arthritis score) compared to Pristane+PBS ([3]; chronic phase, days 84-100, no treatment after day 28, Pristane+i.p. MTX): significant decrease in disease severity; disease severity (arthritis score) compared to Pristane+PBS ([3]; chronic phase, days 84-100, no treatment after day 28, Pristane+i.p. MTX, listed as methotrexate): significantly reduces disease scoring; adverse bone remodeling by microCT, compared to the vehicle control [4]: substantially prevented adverse bone remodeling
